This is an account of results in patent publication US5880130A, “4,6-dianilino-pyrimidine derivatives, their preparation and their use as tyrosine kinase inhibitors” (Zeneca Limited, priority 1993, dated 1999).

pIC50: −log10 of the molar value. Some results are limits rather than exact numbers.

In assay [1] the test system is human naso-pharyngeal cancer cell line KB. The assay can be described thus: Test (b): inhibition of EGF-stimulated growth of the cancer cell line KB. The class given is cell-based. The note with it: 72 h, KB cell growth with EGF (10 ng/ml), 3 days, MTT. As for the experimental part: (b) An in vitro assay which determines the ability of a test compound to inhibit the EGF-stimulated growth of the human naso-pharyngeal cancer cell line KB.
KB cells were seeded into wells at a density of 1×10^4 -1.5×10^4 cells per well and grown for 24 hours in DMEH supplemented with 5% FCS (charcoal-stripped). Cell growth was determined after incubation for 3 days by the extent of metabolism of MTT tetrazolium dye to furnish a bluish colour. Cell growth was then determined in the presence of EGF (10 ng/ml) or in the presence of EGF (10 ng/ml) and a test compound at a range of concentrations. An IC50 value could then be calculated.

For the next assay, the system named is liver hepatocyte growth. In words: Test (c): inhibition of TGFα-stimulated liver hepatocyte growth in rats. The assay is classed as in vivo. The note with it: Rattus norvegicus, male rats, usually oral, TGFα 400 μg/kg subcutaneously, BrdU uptake, approximate ED50. As for the experimental part: (c) An in vivo assay in a group of male rats which determines the ability of a test compound (usually administered orally as a ball-milled suspension in 0.5% polysorbate) to inhibit the stimulation of liver hepatocyte growth caused by the administration of the growth factor TGFα (400 μg/kg subcutaneously, usually dosed twice, 3 and 7 hours respectively after the administration of the test compound).
In a control group of rats, the administration of TGFα causes on average a 5-fold stimulation of liver hepatocyte growth.
Cell-growth in the control and test animals is determined as follows:
On the morning of the day after the dosing of the test compound (or 0.5% polysorbate in the control group), the animals are dosed with bromodeoxyuridine (BrdU; 100 mg/kg intraperitoneally). The animals are killed four hours later and the livers are excised. […] Further tests were carried out using a range of doses of the test compounds to allow the calculation of an approximate ED50 value for the inhibition of liver hepatocyte proliferation as determined by inhibition of the uptake of BrdU.

Assay [2] concerns the target T1, EGF receptor tyrosine kinase (Homo sapiens, UniProt P00533).
T1 construct: Receptor tyrosine kinase was obtained in partially purified form from A-431 cells; endogenous in cells; host or cells: A-431 cells (human vulval carcinoma); Triton X-100 solubilised membrane fraction
In words: Test (a): in vitro inhibition of EGF receptor tyrosine kinase. The class given is biochemical, human (A-431 cells, derived from human vulval carcinoma). The note with it: A-431 cell enzyme, [γ-32P]ATP/peptide phosphorylation, 25° C. 10 minutes. As for the experimental part: (a) An in vitro assay which determines the ability of a test compound to inhibit the enzyme EGF receptor tyrosine kinase. Receptor tyrosine kinase was obtained in partially purified form from A-431 cells (derived from human vulval carcinoma) by procedures related to those described by Carpenter et al., J. Biol. Chem., 1979, 254, 4884, Cohen et al., J. Biol. Chem., 1982, 257, 1523 and by Braun et al., J. Biol. Chem., 1984, 259, 2051.
A-431 cells were grown to confluence using Dulbecco's modified Eagle's medium (DMEM) containing 5% fetal calf serum (FCS). The obtained cells were homogenised in a hypotonic borate/EDTA buffer at pH 10.1. The homogenate was centrifuged at 400 g for 10 minutes at 0°-4° C. The supernatant was centrifuged at 25,000 g for 30 minutes at 0°-4° C. […]
The test compound/EGF mixture solution (5 μl) was added to the test enzyme solution (10 μl) and the mixture was incubated at 0-4° C. for 30 minutes. […] Radioactivity present in the filter paper was measured using a liquid scintillation counter (Sequence A). […]
Receptor tyrosine kinase inhibition was calculated as follows: [formula]
The extent of inhibition was then determined at a range of concentrations of test compound to give an IC50 value.

Assay [3] has as its system another carcinoma which does not express EGF receptor tyrosine kinase. As to conditions: Toi et al. 1990; cited from earlier work.
Assay [4] deals with transplanted human mammary carcinoma which expresses EGF receptor tyrosine kinase. As to conditions: athymic nude mice; Toi et al. 1990; cited from earlier work.

T1 sequence (P00533 25-1210): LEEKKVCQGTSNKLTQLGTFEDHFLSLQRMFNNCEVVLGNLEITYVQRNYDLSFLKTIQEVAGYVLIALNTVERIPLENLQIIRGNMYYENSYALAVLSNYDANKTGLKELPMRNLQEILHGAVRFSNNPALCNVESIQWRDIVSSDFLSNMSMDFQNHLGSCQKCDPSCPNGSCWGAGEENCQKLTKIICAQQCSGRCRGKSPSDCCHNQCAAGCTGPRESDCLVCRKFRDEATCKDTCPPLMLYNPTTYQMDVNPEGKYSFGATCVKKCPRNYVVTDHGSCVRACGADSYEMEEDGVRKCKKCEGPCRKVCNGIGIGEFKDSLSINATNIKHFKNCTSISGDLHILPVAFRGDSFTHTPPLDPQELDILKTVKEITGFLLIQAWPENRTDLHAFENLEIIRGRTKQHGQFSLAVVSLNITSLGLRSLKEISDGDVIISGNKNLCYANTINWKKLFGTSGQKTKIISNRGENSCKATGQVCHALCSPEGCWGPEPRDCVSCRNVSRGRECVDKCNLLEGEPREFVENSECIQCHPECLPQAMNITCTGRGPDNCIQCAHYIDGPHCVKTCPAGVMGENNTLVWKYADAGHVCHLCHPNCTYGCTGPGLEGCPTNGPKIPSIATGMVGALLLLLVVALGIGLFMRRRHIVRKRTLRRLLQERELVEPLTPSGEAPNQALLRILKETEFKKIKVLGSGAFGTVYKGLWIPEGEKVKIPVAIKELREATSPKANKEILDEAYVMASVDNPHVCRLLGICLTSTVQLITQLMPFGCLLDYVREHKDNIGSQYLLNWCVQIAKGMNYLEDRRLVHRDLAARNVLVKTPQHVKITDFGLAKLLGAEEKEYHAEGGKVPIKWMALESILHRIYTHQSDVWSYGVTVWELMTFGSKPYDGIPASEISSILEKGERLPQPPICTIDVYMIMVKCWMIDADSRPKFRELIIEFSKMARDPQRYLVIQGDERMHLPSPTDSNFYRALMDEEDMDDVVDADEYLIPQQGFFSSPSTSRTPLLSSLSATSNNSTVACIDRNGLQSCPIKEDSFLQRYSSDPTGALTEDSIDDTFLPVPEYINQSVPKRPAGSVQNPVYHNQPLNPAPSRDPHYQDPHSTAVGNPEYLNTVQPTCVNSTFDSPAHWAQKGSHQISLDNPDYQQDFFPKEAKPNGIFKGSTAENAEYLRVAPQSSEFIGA

In assay [1], `Cc1cccc(Nc2cc(Nc3ccc(OCCO)cc3)ncn2)c1` [4-[4'-(2-hydroxyethoxy)anilino]6-(3'-methylanilino)pyrimidine] had a pIC50 of 5.97. In the assay on liver hepatocyte growth, this compound showed an ED50 below 12.5 mg/kg.

In the case of `Cc1cccc(Nc2cc(Nc3ccc(OCC(O)CN(C)C)cc3)ncn2)c1` (stereo not drawn) [4-[4'-(3-dimethylamino-2-hydroxypropoxy)anilino]6-(3'-methylanilino)pyrimidine], the pIC50 in assay [1] is 6.51; in assay [2], 8.00.

For the compound `O=CN/C=C/c1cc(O)ccc1O` [erbstatin], the “effect on growth of another carcinoma which does not express EGF receptor tyrosine kinase” value in assay [3] was “without effect on the growth”. The “effect on growth of transplanted human mammary carcinoma expressing EGF receptor tyrosine kinase” value in assay [4] is given as “specifically attenuates the growth”.

Consider `Cc1cccc(Nc2cc(Nc3cccc(C)c3)ncn2)c1` [4,6-di-(3'-methylanilino)pyrimidine], for which the pIC50 in assay [1] is 5.96; in assay [2], 6.62. Also, the ED50 in the assay with liver hepatocyte growth is below 12.5 mg/kg.
